Assay type in all cases: functional, Salmonella enterica subsp. enterica serovar Typhimurium
The test system of experiment [1] is Salmonella typhimurium. Put plainly: Bacterial mutagenicity was measured against Salmonella Typhimurium TA98 at dose range of 0-20 ug/plate.
Experiment [2] concerns Salmonella typhimurium. Put plainly: Bacterial mutagenicity was measured against Salmonella Typhimurium TA1538 at dose range of 0-200 ug/plate.
Experiment [3] concerns Salmonella typhimurium. The experiment is described as follows: Bacterial mutagenicity was measured against Salmonella Typhimurium TA97a at dose range of 0-400 ug/plate.
Experiment [4] relates to Salmonella typhimurium. Put plainly: Bacterial mutagenicity was measured against Salmonella Typhimurium TA1538 at dose range of 0-5 ug/plate.
In experiment [5] the test system is Salmonella typhimurium. The experiment is described as follows: Bacterial mutagenicity was measured against Salmonella Typhimurium TA98 at dose range of 0-10 ug/plate.

The structures appear in SMILES notation.

`C(=N\NC1=NCCN1)/c1c2ccccc2c(/C=N/NC2=NCCN2)c2ccccc12` [BISANTRENE]: the Slope with Salmonella typhimurium [1] came to 0.33 mutants ug-1; in the experiment with Salmonella typhimurium [2] it was 0.2 mutants ug-1; with Salmonella typhimurium [3] it was 1.83 mutants ug-1.

For the molecule `O=C1c2c(O)ccc(O)c2C(=O)c2c(NCCNCCO)ccc(NCCNCCO)c21` [MITOXANTRONE], the figures for the Slope in the experiment on Salmonella typhimurium [3], with Salmonella typhimurium [4] and in the experiment on Salmonella typhimurium [5] were 0.01 mutants ug-1, 3.52 mutants ug-1 and 3.04 mutants ug-1, respectively.

The record behind these values is ChEMBL document CHEMBL1131105, “Anthracene-9,10-diones as potential anticancer agents: bacterial mutation studies of amido-substituted derivatives reveal an unexpected lack of mutagenicity” (1998).
